Experiments:
[1] = test system: α-isomaltosyl-transferring enzyme; test: Influence of metal ions on α-isomaltosyl-transferring enzyme activity (C11 strain); assay type: biochemical, Bacillus globisporus C11 strain; conditions: in the presence of 1 mM of each metal-ion; None = 100
Description: (§1) The activity of α-isomaltosyl-transferring enzyme was assayed by dissolving panose in 100 mM acetate buffer (pH 6.0) to give a concentration of 2% (w/v) for a substrate solution, adding a 0.5 ml of an enzyme solution to 0.5 ml of the substrate solution, enzymatically reacting the mixture solution at 35° C. for 30 min, suspending the enzymatic reaction by boiling the solution for 10 min, and quantifying glucose, among the cyclotetrasaccharide and glucose formed mainly in the reaction mixture, by the glucose oxidase method. One unit activity of α-isomaltosyl-transferring enzyme is defined as the enzyme amount that forms one micromole of glucose per minute under the above enzymatic reaction conditions. Throughout the specification, the enzymatic activity of α-isomaltosyl-transferring enzyme means the unit(s) assayed as above.
(§2) The influence of metal ions on the activity of α-isomaltosyl-transferring enzyme was examined in the presence of 1 mM of each metal-ion according to the assay for its enzyme activity.

[2] = test system: α-isomaltosyl-transferring enzyme; test: Influence of metal ions on α-isomaltosyl-transferring enzyme activity (C9 strain); assay type: biochemical, Bacillus globisporus C9 strain; conditions: in the presence of 1 mM of each metal-ion; None = 100
Description: as §1, §2

[3] = test system: α-isomaltosyl-transferring enzyme; test: Influence of metal ions on α-isomaltosyl-transferring enzyme activity (S1 strain); assay type: biochemical, Arthrobacter ramosus S1 strain; conditions: in the presence of 1 mM of each metal-ion; None = 100
Description: as §1, §2

[4] = test system: α-isomaltosyl-transferring enzyme; test: Influence of metal ions on α-isomaltosyl-transferring enzyme activity (N75 strain); assay type: biochemical, Bacillus globisporus N75 strain; conditions: in the presence of 1 mM of each metal-ion; None = 100
Description: as §1
The influence of temperature and pH on the activity of α-isomaltosyl-transferring enzyme was examined in accordance with the assay for its enzyme activity. […] The thermal stability of the enzyme was determined by incubating the testing enzyme solutions in the form of 20 mM acetate buffer (pH 6.0) at prescribed temperatures for 60 min, cooling the resulting enzyme solutions with water, and assaying the remaining enzyme activity of each solution. The pH stability of the enzyme was determined by keeping the testing enzyme solutions in the from of 50 mM buffers having prescribed pHs at 4° C. for 24 hours, adjusting the pH of each solution to 6.0, and assaying the remaining enzyme activity of each solution. […] The influence of metal ions on the activity of α-isomaltosyl-transferring enzyme was examined in the presence of 1 mM of each metal-ion according to the assay for its enzyme activity.

[5] = test system: α-isomaltosylglucosaccharide-forming enzyme; test: Influence of metal ions on α-isomaltosylglucosaccharide-forming enzyme activity (A19 strain); assay type: biochemical, Arthrobacter globiformis A19 strain; conditions: in the presence of 1 mM of each metal-ion; None = 100
[6] = test system: α-isomaltosylglucosaccharide-forming enzyme; test: Influence of metal ions on α-isomaltosylglucosaccharide-forming enzyme activity (C9 strain); assay type: biochemical, Bacillus globisporus C9 strain
Description: (§3) About 20 L of a fresh preparation of the same liquid culture medium as used in the above seed culture were placed in a 30-L fermentor, sterilized by heating, and then cooled to 27° C. and inoculated with 1% (v/v) of the seed culture, followed by culturing at 27° C. and pH 6.0 to 8.0 for 48 hours under aeration-agitation conditions. […] These activities were assayed as follows: The activity of α-isomaltosylglucosaccharide-forming enzyme was assayed by dissolving maltotriose in 100 mM acetate buffer (pH 6.0) to give a concentration of 2% (w/v) for a substrate solution, adding a 0.5 ml of an enzyme solution to a 0.5 ml of the substrate solution, enzymatically reacting the mixture solution at 35° C. for 60 min, suspending the enzymatic reaction by boiling the solution for 10 min, and quantifying maltose, among the isomaltosyl maltose and maltose formed mainly in the reaction mixture, on HPLC disclosed in Experiment 1. One unit activity of α-isomaltosylglucosaccharide-forming enzyme is defined as the enzyme amount that forms one micromole of maltose per minute under the above enzymatic reaction conditions. Throughout the specification, the enzymatic activity of α-isomaltosylglucosaccharide-forming enzyme means the unit(s) assayed as above.
(§4) The influence of metal ions on the activity of α-isomaltosylglucosaccharide-forming enzyme was examined in the presence of 1 mM of each metal-ion according to the assay for its enzyme activity.

[7] = test system: α-isomaltosylglucosaccharide-forming enzyme; test: Influence of metal ions on α-isomaltosylglucosaccharide-forming enzyme activity (C11 strain); assay type: biochemical, Bacillus globisporus C11 strain
[8] = test system: α-isomaltosylglucosaccharide-forming enzyme; test: Influence of metal ions on α-isomaltosylglucosaccharide-forming enzyme activity (N75 strain); assay type: biochemical, Bacillus globisporus N75 strain
Description: as §3, §4

[9] = test system: α-isomaltosylglucosaccharide-forming enzyme; test: Action on saccharides as substrates (TLC), enzyme of C11 strain; assay type: biochemical, Bacillus globisporus C11 strain; parameters: key: −: it showed no change; +: it showed a slight reduction of the color spot of the substrate and the formation of other reaction product; ++: it showed a high reduction of the color spot of the substrate and the formation of other reaction product; +++: it showed a substantial disappearance of the substrate spot and the formation of other reaction product; conditions: two units/g substrate, substrate 2% (w/v), 30° C., pH 6.0, 24 hours
Source text: (§5) To examine the saccharides in the supernatant, they were separated by developing twice on silica gel thin-layer chromatography (abbreviated as “TLC” hereinafter) using, as a developer, a mixture solution of n-butanol, pyridine, and water (=6:4:1 by volume), and, as a thin-layer plate, “[…]™ 60”, an aluminum plate (20×20 cm) for TLC commercialized by Merck & Co., Inc., Rahway, USA. The coloration of the separated total sugars by the sulfuric acid-methanol method and that of the reducing saccharides by the diphenylamine-aniline method detected a non-reducing saccharide positive at an Rf value of about 0.31 on the former detection method but negative on the latter detection method.
(§6) It was tested whether any saccharides can be used as substrates for α-isomaltosylglucosaccharide-forming enzyme. For the purpose, a solution of maltose, maltotriose, maltotetraose, maltopentaose, maltohexaose, maltoheptaose, isomaltose, isomaltotriose, panose, isopanose, α,α-trehalose, kojibiose, nigerose, neotrehalose, cellobiose, gentibiose, maltitol, maltotriitol, lactose, sucrose, erlose, selaginose, maltosyl glucoside, or isomaltosyl glucoside was prepared.
(§7) To each of the above solutions was added two units/g substrate of a purified specimen of α-isomaltosylglucosaccharide-forming enzyme from either Bacillus globisporus C9 strain obtained by the method in Experiment 4-2, Bacillus globisporus C11 strain obtained by the method in Experiment 7-2, Bacillus globisporus N75 strain obtained by the method in Experiment 11-2, or Arthrobacter globiformis A19 strain obtained by the method in Experiment 15-2, and the resulting each solution was adjusted to give a substrate concentration of 2% (w/v) and incubated at 30° C. and pH 6.0 for 24 hours, except for using pH 8.4 for the enzyme from Arthrobacter globiformis A19 strain. The enzyme solutions before and after the enzymatic reactions were respectively analyzed on TLC disclosed in Experiment 1 to confirm whether the enzymes acted on these substrates.

[10] = test system: α-isomaltosylglucosaccharide-forming enzyme; test: Transfer-acceptor specificity, enzyme of N75 strain; assay type: biochemical, Bacillus globisporus N75 strain; conditions: acceptor 1.6%, PINE-DEX #100 donor 4%, one unit/g donor, 30° C., pH 6.0, 24 hours
Outline: (§8)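 Acceptor saccharides at 1.6% with partial starch hydrolyzate donor at 4% and purified enzyme at 1 unit/g donor, d.s.b., 30 °C, 24 h, pH 6.0 (pH 8.4 for A19 enzyme). Transfer products of mono- and disaccharide acceptors analysed by GLC, of trisaccharide acceptors by HPLC with refractometer detection.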

[11] = test system: α-isomaltosylglucosaccharide-forming enzyme; test: Action on saccharides as substrates (TLC), enzyme of C9 strain; assay type: biochemical, Bacillus globisporus C9 strain; parameters: key: −: it showed no change; +: it showed a slight reduction of the color spot of the substrate and the formation of other reaction product; ++: it showed a high reduction of the color spot of the substrate and the formation of other reaction product; +++: it showed a substantial disappearance of the substrate spot and the formation of other reaction product; conditions: two units/g substrate, substrate 2% (w/v), 30° C., pH 6.0, 24 hours
Source text: as §5, §6, §7

[12] = test system: α-isomaltosylglucosaccharide-forming enzyme; test: Transfer-acceptor specificity, enzyme of C9 strain; assay type: biochemical, Bacillus globisporus C9 strain; conditions: acceptor 1.6%, PINE-DEX #100 donor 4%, one unit/g donor, 30° C., pH 6.0, 24 hours
Outline: as §8

[13] = test system: α-isomaltosylglucosaccharide-forming enzyme; test: Transfer-acceptor specificity, enzyme of A19 strain; assay type: biochemical, Arthrobacter globiformis A19 strain; conditions: acceptor 1.6%, PINE-DEX #100 donor 4%, one unit/g donor, 30° C., pH 8.4, 24 hours
Outline: as §8

[14] = test system: α-isomaltosylglucosaccharide-forming enzyme; test: Action on saccharides as substrates (TLC), enzyme of A19 strain; assay type: biochemical, Arthrobacter globiformis A19 strain; parameters: key: −: it showed no change; +: it showed a slight reduction of the color spot of the substrate and the formation of other reaction product; ++: it showed a high reduction of the color spot of the substrate and the formation of other reaction product; +++: it showed a substantial disappearance of the substrate spot and the formation of other reaction product; conditions: two units/g substrate, substrate 2% (w/v), 30° C., pH 8.4, 24 hours
Source text: as §5, §6, §7

[15] = test system: α-isomaltosylglucosaccharide-forming enzyme; test: Transfer-acceptor specificity, enzyme of C11 strain; assay type: biochemical, Bacillus globisporus C11 strain; conditions: acceptor 1.6%, PINE-DEX #100 donor 4%, one unit/g donor, 30° C., pH 6.0, 24 hours
Outline: as §8

[16] = test system: α-isomaltosylglucosaccharide-forming enzyme; test: Action on saccharides as substrates (TLC), enzyme of N75 strain; assay type: biochemical, Bacillus globisporus N75 strain; parameters: key: −: it showed no change; +: it showed a slight reduction of the color spot of the substrate and the formation of other reaction product; ++: it showed a high reduction of the color spot of the substrate and the formation of other reaction product; +++: it showed a substantial disappearance of the substrate spot and the formation of other reaction product; conditions: two units/g substrate, substrate 2% (w/v), 30° C., pH 6.0, 24 hours
Source text: as §5, §6, §7

[17] = in the presence of 1 mM of each metal-ion, None = 100

| Structure (SMILES) | Relative activity (%) [1] [%] | Relative activity (%) [2] [%] | Relative activity (%) [3] [%] | Relative activity (%) [4] [%] | Relative activity (%) [5] [%] | effect on the enzyme activity, in words ([6]; 1 mM, Table 3) | Relative activity (%) [6, 17] [%] | effect on the enzyme activity, in words ([7]; 1 mM, Table 7) | Relative activity (%) [7, 17] [%] | effect on the enzyme activity, in words ([8]; 1 mM, Table 13) | Relative activity (%) [8, 17] [%] | Enzymatic action, Enzyme of C11 strain [9] | Product of transferring reaction, Enzyme of N75 strain [10] | Enzymatic action, Enzyme of C9 strain [11] | Product of transferring reaction, Enzyme of C9 strain [12] | Product of transferring reaction, Enzyme of A19 strain [13] | Enzymatic action, Enzyme of A19 strain [14] | Product of transferring reaction, Enzyme of C11 strain [15] | Enzymatic action, Enzyme of N75 strain [16] |
| --- | --- | --- | --- | --- | --- | --- | --- | --- | --- | --- | --- | --- | --- | --- | --- | --- | --- | --- | --- |
| [Ni+2] [Ni^2+] | 89 | 102 | 87 | 91 | 46 |  |  |  |  |  |  |  |  |  |  |  |  |  |  |
| [Mn+2] [Mn^2+] |  | 106 |  |  |  | activated | 111 | activated | 142 | activated | 120 |  |  |  |  |  |  |  |  |
| OC[C@@H](O)[C@@H](O[C@H]1O[C@H](CO)[C@@H](O)[C@H](O)[C@H]1O)[C@H](O)[C@@H](O)CO [Maltitol, maltitol] |  |  |  |  |  |  |  |  |  |  |  | − | ++ (a saccharide-transferred product was detected in an amount over ten percent through transfer reaction to acceptor) | − | ++ (a saccharide-transferred product was detected in an amount over ten percent through transfer reaction to acceptor) | ++ (a saccharide-transferred product was detected in an amount over ten percent through transfer reaction to acceptor) | − | ++ (a saccharide-transferred product was detected in an amount over ten percent through transfer reaction to acceptor) | − |
| OC[C@H]1O[C@@H](OC[C@H]2OC(O)[C@H](O)[C@@H](O)[C@@H]2O)[C@H](O)[C@@H](O)[C@@H]1O (some centres unmarked) [Gentibiose, gentibiose] |  |  |  |  |  |  |  |  |  |  |  | − | ++ (a saccharide-transferred product was detected in an amount over ten percent through transfer reaction to acceptor) | − | ++ (a saccharide-transferred product was detected in an amount over ten percent through transfer reaction to acceptor) | + (a saccharide-transferred product was detected in an amount over one percent but less than 10% through transfer reaction to acceptor) | − | ++ (a saccharide-transferred product was detected in an amount over ten percent through transfer reaction to acceptor) | − |
| OC[C@H]1O[C@H](O[C@H]2O[C@H](CO)[C@@H](O)[C@H](O)[C@H]2O)[C@H](O)[C@@H](O)[C@@H]1O [Trehalose, α,α-trehalose] |  |  |  |  |  |  |  |  |  |  |  | − | ++ (a saccharide-transferred product was detected in an amount over ten percent through transfer reaction to acceptor) | − | ++ (a saccharide-transferred product was detected in an amount over ten percent through transfer reaction to acceptor) | ++ (a saccharide-transferred product was detected in an amount over ten percent through transfer reaction to acceptor) | − | ++ (a saccharide-transferred product was detected in an amount over ten percent through transfer reaction to acceptor) | − |
| [Al+3] [Al^3+] | 89 | 103 | 93 | 94 | 37 |  |  |  |  |  |  |  |  |  |  |  |  |  |  |

From patent US7592160B2, “Processes for producing isomaltose and isomaltitol and use thereof” (Kabushiki Kaisha Hayashibara Seibutsu Kagaku Kenkyujo, priority 2001, dated 2009)
